From the supplement of paper PMC10307832

Columns and labels:
Assay in all cases: relative viability (nuclei count vs DMSO), 5 days (fraction); higher = more cells survive
Dabrafenib + Foretinib = compound: CC(C)(C)c1nc(-c2cccc(NS(=O)(=O)c3c(F)cccc3F)c2F)c(-c2ccnc(N)n2)s1 [Dabrafenib] + COc1cc2c(Oc3ccc(NC(=O)C4(C(=O)Nc5ccc(F)cc5)CC4)cc3F)ccnc2cc1OCCCN1CCOCC1 [Foretinib] (partner 0.25 µM)
Procedure, shortened: (§1)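 Relative viability divides the nuclei count in treated wells by that in vehicle wells. Lung cancer cell lines were seeded in 1536-well plates, dosed by pin tool the next day, and fixed and stained after 5 days in one step with final 0.05% Triton X-100, 1% formaldehyde and 1 ug/ml Hoechst. Dosing was a single drug or a fixed anchor-drug dose plus five library-drug doses (not always all listed) in √10 steps, and values are medians of duplicate plates imaged at 4×.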

Dabrafenib + Pictilisib = compound: CC(C)(C)c1nc(-c2cccc(NS(=O)(=O)c3c(F)cccc3F)c2F)c(-c2ccnc(N)n2)s1 [Dabrafenib] + CS(=O)(=O)N1CCN(Cc2cc3nc(-c4cccc5[nH]ncc45)nc(N4CCOCC4)c3s2)CC1 [Pictilisib] (partner 1 µM)
Procedure, shortened: as §1

VX-702 + Tozasertib = compound: NC(=O)c1ccc(N(C(N)=O)c2c(F)cccc2F)nc1-c1ccc(F)cc1F [VX-702] + Cc1cc(Nc2cc(N3CCN(C)CC3)nc(Sc3ccc(NC(=O)C4CC4)cc3)n2)n[nH]1 [Tozasertib] (partner 0.1 µM)
Procedure, shortened: as §1

VX-702 + Olaparib = compound: NC(=O)c1ccc(N(C(N)=O)c2c(F)cccc2F)nc1-c1ccc(F)cc1F [VX-702] + O=C(c1cc(Cc2n[nH]c(=O)c3ccccc23)ccc1F)N1CCN(C(=O)C2CC2)CC1 [Olaparib] (partner 8 µM)
Procedure, shortened: as §1

Row | Cell Line | relative viability (Dabrafenib + Foretinib; first compound 0.003 µM) | relative viability (Dabrafenib + Foretinib; first compound 0.009487 µM) | relative viability (Dabrafenib + Foretinib; first compound 0.03 µM) | relative viability (Dabrafenib + Foretinib; first compound 0.09487 µM) | relative viability (Dabrafenib + Foretinib; first compound 0.3 µM) | relative viability (Dabrafenib + Pictilisib; first compound 0.003 µM) | relative viability (Dabrafenib + Pictilisib; first compound 0.009487 µM) | relative viability (Dabrafenib + Pictilisib; first compound 0.03 µM) | relative viability (Dabrafenib + Pictilisib; first compound 0.09487 µM) | relative viability (Dabrafenib + Pictilisib; first compound 0.3 µM) | relative viability (VX-702 + Tozasertib; first compound 0.02 µM) | relative viability (VX-702 + Tozasertib; first compound 0.2 µM) | relative viability (VX-702 + Tozasertib; first compound 0.6325 µM) | relative viability (VX-702 + Tozasertib; first compound 2 µM) | relative viability (VX-702 + Olaparib; first compound 0.02 µM) | relative viability (VX-702 + Olaparib; first compound 0.2 µM) | relative viability (VX-702 + Olaparib; first compound 0.6325 µM) | relative viability (VX-702 + Olaparib; first compound 2 µM)
1 | LU99A | 0.942 | 0.702 | 0.715 | 0.756 | 0.79 | 0.336 | 0.268 | 0.342 | 0.299 | 0.266 | 0.315 | 0.25 | 0.257 | 0.263 | 0.265 | 0.233 | 0.255 | 0.228
2 | LXF-289 | 1.01 | 1.03 | 0.993 | 0.931 | 1.01 | 0.656 | 0.809 | 0.671 | 0.853 | 0.842 | 0.208 | 0.188 | 0.214 | 0.175 | 1.08 | 1.07 | 1.06 | 1.1
3 | NCI-H23 | – | 1.04 | 0.906 | 0.878 | 0.873 | – | 0.465 | 0.461 | 0.455 | 0.503 | 0.446 | 0.334 | 0.37 | 0.486 | 0.372 | 0.254 | 0.329 | 0.402
4 | NCI-H322M | – | 1.19 | 0.75 | 0.879 | 0.945 | – | 0.539 | – | 0.542 | 0.489 | 0.486 | 0.506 | 0.496 | 0.508 | 1.26 | 0.839 | 0.806 | 0.929
5 | NCI-H358 | 0.662 | 0.862 | 0.815 | 0.771 | 0.76 | – | 0.307 | 0.339 | 0.405 | 0.282 | 0.0998 | 0.0877 | 0.0872 | 0.115 | 0.628 | 0.526 | 0.561 | 0.634
6 | NCI-H441 | – | 1.11 | 0.941 | 1.05 | 0.843 | – | 0.54 | 0.406 | 0.374 | 0.401 | 0.722 | 0.546 | 0.478 | 0.641 | 0.567 | 0.553 | 0.572 | 0.661
7 | NCI-H460 | 0.949 | 1.01 | 0.961 | 0.933 | 0.993 | 0.194 | 0.352 | 0.245 | 0.653 | 0.553 | 0.665 | 0.54 | 0.614 | 0.159 | 0.428 | 0.438 | 0.548 | 0.26
8 | NCI-H520 | 0.909 | 0.78 | 0.455 | 0.74 | 0.661 | 0.344 | 0.295 | 0.237 | 0.265 | 0.253 | 0.443 | 0.385 | 0.434 | 0.55 | 0.358 | 0.305 | 0.379 | 0.289
9 | NCI-H596 | – | 0.928 | 0.575 | 0.686 | 0.861 | 0.372 | 0.364 | 0.194 | 0.397 | 0.423 | 0.8 | 0.859 | 0.87 | 1.09 | 0.66 | 0.714 | 0.898 | 0.685
10 | NCI-H647 | 1.35 | 1.16 | 1.01 | 1.05 | 1.38 | – | 0.347 | – | 0.531 | 0.388 | 0.323 | 0.248 | 0.208 | 0.436 | 0.752 | 0.509 | 0.427 | 0.744
11 | NCI-H650 | – | 0.959 | 0.793 | 0.734 | 0.585 | – | 0.977 | 0.878 | 0.688 | 0.661 | 0.662 | – | 0.801 | 0.893 | 0.435 | 0.433 | 0.452 | 0.456
12 | NCI-H661 | 1.01 | 0.983 | 0.97 | 1.01 | 1.01 | 0.283 | 0.376 | – | 0.34 | 0.48 | 0.35 | 0.345 | 0.352 | 0.35 | 0.752 | 0.73 | 0.756 | 0.798
13 | NCI-H727 | – | 0.886 | 0.601 | 0.947 | 1.1 | – | 0.476 | 0.36 | 0.444 | 0.401 | 0.738 | 0.809 | 0.572 | 0.665 | 0.67 | 0.789 | 0.72 | 0.555
14 | NCI-H838 | 1 | 1.06 | 0.801 | 0.923 | 1.1 | 0.394 | 0.563 | 0.421 | 0.447 | 0.385 | 0.233 | 0.285 | 0.303 | 0.291 | 0.772 | 0.715 | 0.827 | 0.926
15 | NCI-H1355 | – | 0.981 | 0.935 | 0.809 | 0.947 | – | 0.493 | 0.328 | – | 0.362 | 0.497 | 0.514 | 0.593 | 0.631 | 0.752 | 0.729 | 0.785 | 0.876
16 | NCI-H1395 | 0.997 | 0.892 | 1.09 | 0.874 | 0.82 | – | 0.652 | 0.673 | 0.542 | 0.567 | 0.686 | 0.767 | 0.75 | 0.966 | 0.447 | 0.46 | 0.502 | 0.448
